Measured values published in patent US20240423204A1, “METHOD AND USE OF AN ENANTIOMER OF 3,4-DIHYDROXYPHENYLALANINE (DOPA) FOR ENHANCING PLANT ATTRACTIVENESS TO BENEFICIAL INSECTS” (BIOBAB R&D, S.L., priority 2021, published 2024).

Tests used:
[1] = system: bean plant (Vicia faba) leaves; experiment: Estimation of total phenolic content in bean plant (Vicia faba) leaves, Folin-Ciocalteu assay; assay type: in vivo; conditions: soil/vermiculite, 10 μg in 30 mL, 24 h
Description: The estimation of total phenolic content in bean plant leaves (Vicia faba) was based on the procedure developed by Ainsworth, E.A. et al. (2007) using Folin-Ciocalteu (F-C) reagent. F-C assay is commonly been used to assay total phenolic content. The F-C assay provides a convenient, rapid, and simple estimation of the content of total phenolics, and other oxidation substrates in plant extracts.
Broad bean (Vicia faba cv Histal) plants were grown in a mixture of sterile soil/vermiculite (7:3) for 10 days, and treated with L-DOPA (10 μg), D-DOPA (10 μg) or HPLC water (control, 10 μl) dissolved in 30 mL of distilled water. After 24 h harvest leaves material (approximately 20 mg) in screw-capped tubes and freeze immediately in liquid nitrogen.
To homogenize the tissue, three tungsten carbide beads and 2 ml of ice-cold 95% (vol/vol) methanol were added in each sample tube and insert samples into pre-cooled Teflon adaptors. Tissue was homogenized for 5 min at 30 Hz. […]
Finally, a […] sample, standard or blank from the assay tube were transferred to a clear 96-well micro-plate and the absorbance of each was measured at 750 nm using a spectrophotometer.
For calculate the total phenolic content, first a standard curve from the blank-corrected A750 of the gallic acid standards was calculated. […]

Aphidius ervi = experiment: Behavioral assay in two-way olfactometer, bean plants (Vicia faba) treated by soil application; assay type: in vivo; conditions: 10 min, Vicia faba 3-4 weeks, versus clean plant
Description: Broad bean seeds (Vicia faba cv Aguadulce supersimonia) were planted individually in plastic pots (6×6×9 cm) filled with Traysubstrat topsoil (Klasmann-Deilmann GmbH) or a mixture of agriperlite, vermiculite, and sand (1:1:1) and grown in an environmental chamber (24±2° C., 45±10% RH, 14 h: 8 h L: D).
For this example, bean plants of 3-4 weeks were used. Plants were treated by soil application of the two isomers of DOPA: 3,4-dihydroxy-L-phenylalanine (Alfa Aesar, CAS Number 59-92-7) and 3,4-dihydroxy-D-phenylalanine (Sigma Aldrich, CAS Number 5796-17-8).
Untreated plants were also used as control.
The attractiveness of beneficial insects, specifically Aphidius ervi, towards a bean plants treated with the isomers of DOPA compared to clean bean plant (control) was evaluated in an olfactometer.
The behavioral response of A. ervi were evaluated over 10 min in a two-way olfactometer. Only active insects, i.e. insects that spent at least 60 s in the treatment (trt) and/or control (cnt) arm of the olfactometer were taken into account.
The results obtained in this example are expressed as a percentage of residence time in each olfactometer arm where the parasitoid remained, relative to the total time spent in the two arms. Paired t-tests were conducted using R (free software environment for statistical computing and graphics).

bean plants (Vicia faba) [2] = experiment: VOC induction assay on bean plants (Vicia faba) in soil/vermiculite; assay type: in vivo; conditions: 10 μg in 30 mL, 24 h, 6-methyl-5-hepten-2one, cis-3-hexen-1-ol, cis-3-hexenyl acetate, ocimene
Description: Broad beans (Vicia faba cv Histal) plants were grown in a mixture of sterile soil/vermiculite (7:3) for 10 days, and treated with L-DOPA (10 μg), D-DOPA (10 μg) or HPLC water (control, 10 μl) dissolved in 30 mL of distilled water.
(§1) After 24 h, the volatile organic compounds (VOCs) emitted from the plant were collected through a dynamic headspace.
(§2) The bean plants were enclosed in a glass vessel with a volume of 3.2 I. The bottom of the vessel was enclosed around the top of the pot. Air that had been purified by passage through an activated charcoal filter (BDH, 10-14 mesh) was pushed into (750 ml·min^−1) and pulled (700 ml·min^−1) out of the vessel. VOCs were trapped onto Porapack™ (Porous Polymer Adsorbent) 50/80 mesh (50 mg; Supelco, Bellefonte, USA) held in glass tubing (5 mm outer diameter) by two plugs of silanised glass wool. The Porapack™ tube was conditioned by washing with redistilled diethyl ether (2 ml) and heating at 130° C. for 4 h under a stream of purified nitrogen. […]
(§3) For the analysis, four samples (1 μL) from each treatment (L-DOPA, D-DOPA and Control) were analyzed on an Agilent 7820A Gas Chromatograph (Agilent Technologies, Santa Clara, California, USA), equipped with a cool column injector, flame ionization detector (FID), and a HP-1 capillary GC column (50 m×0.32 mm internal diameter×0.52 μm film thickness). […]

bean plants (Vicia faba) [3] = experiment: VOC induction assay on bean plants (Vicia faba) in hydroponic medium; assay type: in vivo; conditions: 10 μg
Description: Broad beans (Vicia faba cv Histal) were potted in sterile vermiculite and kept in a glasshouse at 23° C. After 7 days, the seedlings were gently removed from the vermiculite, the cotyledons peeled and the roots rinsed with bidistilled water, carefully brushing away all soil particles. They were then placed in glass beakers containing a hydroponic solution made with Hoagland's modified basalt salt mixture, (MP, USA), and maintained in an environmental chamber at 23° C. Each beaker, containing three seedlings, was wrapped in aluminum foil to hold the plants in position and to prevent the light from reaching the roots. Every 4 days, the hydroponic solution in each beaker was renewed. After 10 days plants were treated with L-DOPA (10 μg), D-DOPA (10 μg) or HPLC water (control, 10 μl) dissolved in 30 mL of distilled water.
(§4) The bean plants were enclosed in a glass vessel with a volume of 3.2 I. The bottom of the vessel was enclosed around the top of the pot. Air that had been purified by passage through an activated charcoal filter (BDH, 10-14 mesh) was pushed into (750 ml·min^−1) and pulled (700 ml·min^−1) out of the vessel. VOCs were trapped onto Porapack™ (Porous Polymer Adsorbent) 50/80 mesh (50 mg; Supelco, Bellefonte, USA) held in glass tubing (5 mm outer diameter) by two plugs of silanised glass wool. The Porapack™ tube was conditioned by washing with redistilled diethyl ether (2 ml) and heating at 130° C. for 4 h under a stream of purified nitrogen.
(§5) VOCs collected on the Porapak™ were eluted with 750 μL of redistilled diethyl ether and the samples were stored at −20° C. until analysis.
(§6) For the analysis, four samples (1 μL) from each treatment (L-DOPA, D-DOPA and Control) were analyzed on an Agilent 7820A Gas Chromatograph (Agilent Technologies, Santa Clara, California, USA), equipped with a cool column injector, flame ionization detector (FID), and a HP-1 capillary GC column (50 m×0.32 mm internal diameter×0.52 μm film thickness). Hydrogen was the carrier gas. The oven temperature was maintained at 30° C. for 0.1 min, then programmed to increase at 10° C.·min^−1 until 250° C., and then held for 38 min. Tentative identifications were made by Kovats' Index values and GC peak enhancement on GC columns of HP-1, using authentic samples of chemicals compounds.

[4] = system: bean plants (Phaseolus vulgaris); experiment: VOC induction assay on bean plants (Phaseolus vulgaris) in hydroponic medium; assay type: in vivo; conditions: 10 μg, 24 h
Description: Beans (Phaseolus vulgaris cv CGB0002) were sown in sterile vermiculite and kept in a glasshouse at 27° C. After 17 days, the seedlings were gently removed from the vermiculite. They were then placed in glass beakers containing 150 mL of hydroponic solution made with Hoagland's modified basalt salt mixture, (MP, USA), and maintained in an environmental chamber at 27° C. Each beaker, containing one seedling, was wrapped in aluminum foil to hold the plants in position and to prevent the light from reaching the roots. After 2 days plants were treated with L-DOPA (10 μg), D-DOPA (10 μg) or HPLC water (control, 10 μl).
as §1, §4, §5, §6

[5] = system: bean plants (Phaseolus vulgaris); experiment: VOC induction assay on bean plants (Phaseolus vulgaris) in soil; assay type: in vivo; conditions: 10 μg in 30 mL, 24 h, cis-3-hexenyl acetate and ocimene
Description: Bean (Phaseolus vulgaris cv CGB0002) plants were grown in sterile soil for 5 days, and treated with L-DOPA (10 μg), D-DOPA (10 μg) or HPLC water (control, 10 μl) dissolved in 30 mL of distilled water.
as §1, §2, §3

many plants = conditions: allelochemical effect, Nishihara et al (2004); cited from earlier work
[6] = system: wheat plants (Triticum monococcum); experiment: VOC induction assay on wheat plants (Triticum monococcum) in soil; assay type: in vivo; conditions: 10 μg in 30 mL, 24 h
Description: Wheat (Triticum monococcum VAR Tocayo) plants were grown in sterile soil for 15 days (20 seeds per pot), and treated with L-DOPA (10 μg), D-DOPA (10 μg) or HPLC water (control, 10 μl) dissolved in 30 mL of distilled water.
as §1
as §2, with “wheat” for “bean”
as §3

In the case of N[C@H](Cc1ccc(O)c(O)c1)C(=O)O [D-DOPA, D-3,4-dihydroxyphenylalanine], the “total phenolic content versus untreated plants (control)” value [1] is reported as “higher”, the “residence time of A. ervi females on treated bean plants, higher than for untreated plants” value (Aphidius ervi) is reported as “approx. +20%” and the “concentration of VOCs (FID response) emitted by the plant versus control” value (bean plants (Vicia faba) [2]) is reported as “A change is observed”. For the same compound, the “concentration of 6-methyl-5-hepten-2one versus control” value (bean plants (Vicia faba) [3]) was “A change is observed”, the “concentration of cis-3-hexenyl acetate versus control” value (bean plants (Vicia faba) [3]) was “A change is observed” and the “concentration of ocimene versus control” value (bean plants (Vicia faba) [3]) was “A change is observed”. For the same compound, the “concentration of cis-3-hexen-1-ol versus control” value [4] was “A change is observed” and the “concentration of ocimene versus control” value [4] was “A change is observed”.
With N[C@@H](Cc1ccc(O)c(O)c1)C(=O)O [L-DOPA, L-3,4-dihydroxyphenylalanine] the “total phenolic content versus untreated plants (control)” value [1] was “higher”, the “residence time of A. ervi females on treated bean plants, higher than for untreated plants” value (Aphidius ervi) was “approx. +20%” and the “concentration of VOCs (FID response) versus control” value [5] was “A change is observed”. For the same compound, the “growth of plants (especially radicle and hypocotyl)” value (many plants) was “reduced the growth”, the “concentration of VOCs (FID response) emitted by the plant versus control” value (bean plants (Vicia faba) [2]) was “A change is observed” and the “concentration of ocimene versus control” value [6] was “A change is observed”. For the same compound, the “concentration of 6-methyl-5-hepten-2one versus control” value (bean plants (Vicia faba) [3]) was “A change is observed”, the “concentration of cis-3-hexenyl acetate versus control” value (bean plants (Vicia faba) [3]) was “A change is observed” and the “concentration of ocimene versus control” value (bean plants (Vicia faba) [3]) was “A change is observed”. The “concentration of 6-methyl-5-hepten-2one versus control” value [4] was “A change is observed”, the “concentration of cis-3-hexen-1-ol versus control” value [4] was “A change is observed” and the “concentration of cis-3-hexenyl acetate versus control” value [4] was “A change is observed”. The “concentration of ocimene versus control” value [4] was “A change is observed”.
